This is an account of results in PubChem BioAssay (NCI).

Some test systems named below: MDA-N; DLD-1 colon; DMS 273 small cell lung; HOP-18 NSCLC; KM20L2 colon; RXF-631 renal; XF 498 CNS; DMS 114 small cell lung; SNB-78 CNS; P388 leukemia; P388/ADR leukemia; SN12K1 renal.
Common to all, as to experiment: NCI tumour cell line growth inhibition, 48 h

“And” between values parts separate entries of the source, which are not always exact repeats. Equal values may be shown once.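 Interpolation was linear, between the two tested concentrations surrounding the appropriate level; five concentrations were tested over 48 hours in 96-well plates. GI50 = concentration required for 50% inhibition of growth. TGI: total growth inhibition.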

`CC(=O)OCC1OC(n2ncc(=O)[nH]c2=O)C(OC(C)=O)C1OC(C)=O` (stereo not given) had a TGI in the assay with MDA-N greater than 100 µM.

For the compound `O=C1CC(CC(OCc2ccccc2)C(OCc2ccccc2)C(COCc2ccccc2)OCc2ccccc2)CC(=O)N1` (stereo not given), in the assay with MDA-N, the GI50 is > 100 µM and 12.5 µM; the TGI is > 100 µM and 27.7 µM.

Take `O=C(O)CN(c1ccc(F)cc1)S(=O)(=O)c1ccccc1`: the TGI in the assay on DLD-1 colon, in the assay with DMS 273 small cell lung, in the assay with HOP-18 NSCLC, in the assay with KM20L2 colon, in the assay with RXF-631 renal and in the assay with XF 498 CNS was greater than 100 µM in each case.

Consider `CCOC(=O)CN(c1ccccc1)c1nc(=[N+](C)C)ss1`, for which the TGI in the assay on DLD-1 colon was greater than 100 µM; in the assay with DMS 114 small cell lung, 27.7 µM; with DMS 273 small cell lung, 33.8 µM; with HOP-18 NSCLC, greater than 100 µM; in the assay on KM20L2 colon it was greater than 100 µM; in the assay on SNB-78 CNS, greater than 100 µM.

Regarding `O=C(O)c1c2c(cc3c(=O)cc(-c4ccccc4)oc13)CCCC2`, the TGI with DLD-1 colon, in the assay on DMS 273 small cell lung, in the assay with KM20L2 colon, in the assay on RXF-631 renal, with SNB-78 CNS and with XF 498 CNS was greater than 100 µM each time.

As for `Cc1ccc(C(=O)NCCN(C)C)c2nc3ccccc3cc12`, the TGI in the assay with DLD-1 colon was greater than 100 µM; with DMS 114 small cell lung, greater than 100 µM; with DMS 273 small cell lung it was 2 µM; in the assay on HOP-18 NSCLC, 9.89 µM; in the assay with KM20L2 colon, 6 µM; in the assay on RXF-631 renal it was 12 µM. The values for the TGI with SNB-78 CNS and with XF 498 CNS were greater than 100 µM and 3.95 µM, respectively.

Regarding `Cc1ccc(C2=Nc3ccccc3S(=O)C(c3ccc4c(c3)OCO4)C2)cc1` (stereo not given), the TGI with DLD-1 colon is 30.7 µM; in the assay with DMS 273 small cell lung it was greater than 100 µM; in the assay on HOP-18 NSCLC, greater than 100 µM; in the assay with KM20L2 colon, 33 µM; with SNB-78 CNS, 86.9 µM; with XF 498 CNS, 36.1 µM.

As to `O=[N+]([O-])c1oc2ccc3ccccc3c2c1CCO`, in the assay on MDA-N, the TGI amounted to 4.07 µM.

For the compound `CC(C)=NNC(=S)NC12CC3CC(CC(C3)C1)C2`, the TGI with DMS 273 small cell lung, with KM20L2 colon, in the assay on RXF-631 renal, in the assay with SNB-78 CNS and with XF 498 CNS was greater than 100 µM in each case.

On to `c1ccc2c(CNCCCCCCCCNCc3cccc4ccccc34)cccc2c1`, for which the TGI with DLD-1 colon came out at 4.07 µM; in the assay on DMS 114 small cell lung, 3.48 µM; in the assay with DMS 273 small cell lung it was 3.68 µM; with HOP-18 NSCLC, 18.5 µM; in the assay with KM20L2 colon, 3.22 µM; in the assay with SNB-78 CNS, 4.45 µM. This compound returned a TGI in the assay with XF 498 CNS of 3.24 µM.

The compound `CC1(C)CCC(C)(C)c2cc(NC(=O)c3ccc(C(=O)O)cc3)ccc21` yielded a TGI with MDA-N greater than 100 µM.

Turning to `COC(=O)C1[C@H](c2ccc3c(c2)OCO3)OC(=O)[C@]1(C(=O)OC)C(=O)c1ccc(OC)c(OC)c1` (stereo not given in full), the TGI was 40.1 µM in the assay on DLD-1 colon; 71.6 µM with DMS 273 small cell lung; greater than 100 µM in the assay with HOP-18 NSCLC; greater than 100 µM in the assay on KM20L2 colon; greater than 100 µM in the assay with SNB-78 CNS; greater than 100 µM in the assay on XF 498 CNS.

For `O=c1cccc2n1CC1CNC[C@H]2C1`, the TGI in the assay with MDA-N is greater than 100 µM.

In turn, `COc1ccc(OC)c(/C=C/c2ccnc3ccccc23)c1` registered a TGI in the assay with MDA-N of 0.286 µM.

Consider `CCC1(c2ccc(N)cc2)CCC(=O)NC1=O` (stereo not given), for which the TGI in the assay with DLD-1 colon was greater than 5000 µM; in the assay on DMS 114 small cell lung, greater than 4320 µM; in the assay with DMS 273 small cell lung, greater than 5000 µM; in the assay with HOP-18 NSCLC, greater than 4910 µM; with KM20L2 colon, greater than 5000 µM; in the assay with MDA-N, greater than 5000 µM. The TGI was greater than 5000 µM with P388 leukemia; greater than 2810 µM in the assay on P388/ADR leukemia; greater than 5000 µM in the assay with SN12K1 renal; 4970 µM in the assay on SNB-78 CNS; 4260 µM with XF 498 CNS.

Turning to `[Cu+2].[NH-]C(CC(=O)O)C(=O)O.[NH-]C(CC(=O)O)C(=O)O` (stereo not given), in the assay on MDA-N, the GI50 is greater than 100 µM and the TGI was greater than 100 µM.

For `COc1cc(O)c2c(c1)C(=O)C1=C(C2=O)C(O)C[C@@](C)(O)C1` (stereo not given in full), the TGI with DLD-1 colon was 2.28 µM; in the assay on DMS 114 small cell lung, 3.26 µM; in the assay with DMS 273 small cell lung it was 5.04 µM; with KM20L2 colon it was 11.6 µM; with SNB-78 CNS, 4.67 µM; in the assay on XF 498 CNS, 3.46 µM.

Regarding `COC12OCCN(C)C1=CC(=O)C1(C)N=NCC12` (stereo not given), the TGI in the assay with DLD-1 colon, in the assay on DMS 114 small cell lung, with DMS 273 small cell lung, in the assay with HOP-18 NSCLC and in the assay with SNB-78 CNS was greater than 100 µM in each case.

Regarding `CCCCCCCCCCOC(=O)NCCC`, the TGI is greater than 100 µM in the assay with DLD-1 colon; 54.9 µM in the assay with DMS 273 small cell lung; greater than 100 µM in the assay on HOP-18 NSCLC; 62.2 µM in the assay with KM20L2 colon; greater than 100 µM in the assay with RXF-631 renal; 43.6 µM in the assay with XF 498 CNS.

In the case of `O=C(CSSCC(=O)Nc1ccc(Br)cc1)Nc1ccc(Br)cc1`, the TGI was 35.9 µM in the assay on DLD-1 colon; 28.2 µM with DMS 114 small cell lung; 30.8 µM in the assay with DMS 273 small cell lung; 29.2 µM in the assay on KM20L2 colon; 32.5 µM in the assay with SNB-78 CNS; 34.5 µM in the assay with XF 498 CNS.

In the case of `C=C1C(=O)C2=CC1CCC(=O)C1(C)CCC(OC(C)=O)C(C)(C)C1CC2O` (stereo not given), the TGI with MDA-N is 4.41 µM.

In the case of `CC[PH+](CC)CC.CC[PH+](CC)CC.[Au]`, the GI50 in the assay with DLD-1 colon was 5.52 µM; in the assay with DMS 273 small cell lung, 17 µM; in the assay on HOP-18 NSCLC it was 8 µM; in the assay on KM20L2 colon it was 17.3 µM; in the assay on SNB-78 CNS, 6.82 µM; with XF 498 CNS, 11 µM. The TGI with DLD-1 colon is 18.9 µM; in the assay on DMS 273 small cell lung it was 38.3 µM; in the assay with HOP-18 NSCLC it was 22.1 µM; with KM20L2 colon it was 33.3 µM; in the assay with SNB-78 CNS, 53.1 µM; in the assay on XF 498 CNS, 26.4 µM.

For `CN1C(=O)C2(c3ccccc31)C1CC3C(CO1)C1C2C3(CO)CN1C#N` (stereo not given), in the assay with MDA-N, the TGI was greater than 100 µM.

`OCC1CCCC1O` (stereo not given) yielded a TGI in the assay with MDA-N greater than 100 µM.

In turn, `O=C(O)Cc1ccc(N=Nc2c(O)c(C(=O)O)cc3ccccc23)cc1` returned a TGI in the assay on MDA-N greater than 100 µM.

Take `N#CCc1nnc(N)o1`: the TGI with DLD-1 colon, in the assay with DMS 273 small cell lung, with KM20L2 colon, with RXF-631 renal, in the assay on SNB-78 CNS and in the assay on XF 498 CNS was greater than 100 µM each time.
